# Measured values: patent US4016176A, “Esters of 4-hydroxy-2,9-dioxatricyclo[4.3.1.0^3,7 ] decanes and processes for their production” (Kali-Chemie Pharma GmbH, priority 1973, dated 1977)
# Where two headings read alike, the source gives them in different places.
# Legend:
# [1] = system: mice; experiment: acute toxicity (LD50) in mice; assay type: in vivo, mouse; settings: mouse; for B - lethal dose (LD50) to mice, intraperitoneally: intraperitoneal; for B - lethal dose (LD50) to mice, intraperitoneally / A - lethal dose (LD50) to mice, per os: Table 3
# Source text: (§1) In the Table 3 which follows are listed results of tests pertaining to the effectiveness of various compounds that are disclosed herein. The results are included in the several columns under letters whose significance is as follows:
# (§2) A - lethal dose (LD50) to mice in milligrams per kilogram of body weight of the mouse when administered per os.
# (§3) B - lethal dose (LD50) to mice in milligrams per kilogram of body weight of the mouse when administered intraperitoneally.
# (§4) A. lethal dose (LD50) to mice in milligrams per kilogram body weight of the mouse when administered per os.
# (§5) B. lethal dose (LD50) to mice in milligrams per kilogram body weight of the mouse administered intraperitoneally.
# (§6) The values specified in Tables 4 and 5 hereinafter refer to milligrams per kilogram of body weight of the mouse.
# (§7) Tests performed in accordance with the procedure described by Campbell and Richter in Acta Pharmacol. et Toxicol., vol. […] This is indicated by the results that are reported in Table 5 in which the headings A and F have the same significance as hereinbefore while the values in the column heading L pertain to the dose in milligrams per kilogram of body weight that was required to produce a lowering of the rectal temperature, which are values indicative of the depressant effect of a compound upon the central nervous system.
# [2] = system: mouse; experiment: ataxia in mice; assay type: in vivo; settings: for C - ataxia: dose required to produce ataxia in a mouse / minimal effective dose: Table 3; for minimal effective dose: Mus musculus, read-out: C - ataxia: dose required to produce ataxia in a mouse, mouse
# Source text: as §1
# C - ataxia: Dose in milligrams per kilogram of body weight required to produce ataxia in a mouse.
# [3] = system: mouse; experiment: prolongation of narcosis produced by hexobarbital in mice; assay type: in vivo; settings: for prolongation of narcosis produced by hexobarbital (in words): comparison of epimers; for E - dose which prolongs narcosis produced by hexobarbital in a mouse by a factor of 4: factor of 4, Table 3
# Source text: (§8) In the Table 3 which follows are listed results of tests pertaining to the effectiveness of various compounds that are disclosed herein.
# [4] = system: mice; experiment: narcosis (lateral position) in mice; assay type: in vivo, mouse; settings: for ED50: ip, 0.05 h, read-out: D - narcosis (lateral position): dose (ED50) which produces narcosis for 3 minutes in 50% of the mice; for narcosis (in words): comparison of epimers
# Source text: as §8
# [5] = acute toxicity (LD50) in mice; assay type: in vivo, mouse; settings: in vivo, mouse
# Source text: as §1, §2, §3, §4, §5, §6, §7
# [6] = system: white mice; experiment: balance bar test (Campbell and Richter screening); assay type: in vivo; settings: mouse; Table 4; read-out: K. balance bar test (ED50)
# Source text: (§9) The sedative and hypnotic effectiveness of the compounds of the invention were also ascertained by screening tests with white mice described by Campbell and Richter in Acta Pharmacol. et Toxicol. 25 (1967) page 345. In Table 4 the results of various specific screening tests are listed. These tests were as follows:
# K. balance bar test (ED50).
# as §6
# [7] = system: white mice; experiment: climbing test (Campbell and Richter screening); assay type: in vivo; settings: mouse; Table 4; read-out: J. climbing test (ED50)
# Source text: as §9, §6
# [8] = system: mouse; experiment: lowering of the rectal temperature in mice; assay type: in vivo; settings: for dose required to produce a lowering of the rectal temperature, relative to the 4-hydroxy compound (in words): compared with Compound No. 2090; for minimal effective dose: mouse, Table 5, read-out: L dose required to produce a lowering of the rectal temperature
# Source text: as §6, §7
# [9] = system: white mice; experiment: ptosis test (Campbell and Richter screening); assay type: in vivo, mouse; settings: for F ptosis test: mouse, Table 5
# Source text: as §9, §6, §7
# [10] = mouse, intraperitoneal, narcosis for 3 minutes, Table 3
# [11] = ip, intraperitoneal, Table 4, read-out: B. lethal dose (LD50) to mice, intraperitoneally
# [12] = po, per os, Table 4, read-out: A. lethal dose (LD50) to mice, per os
# [13] = po, per os, Table 5, read-out: A lethal dose (LD50) to mice, per os
# [14] = ip, intraperitoneal, Table 3, read-out: B - lethal dose (LD50) to mice, intraperitoneally
# [15] = po, per os, Table 3, read-out: A - lethal dose (LD50) to mice, per os
compound,measurement,setting,value
COC1OC2OC3(C)C(OC(=O)NC(C)C)CC(C2C)C13 (stereo not drawn) [Compound No. 2065],"B - lethal dose (LD50) to mice, intraperitoneally",[1],118 milligrams per kilogram of bod
same,"A - lethal dose (LD50) to mice, per os",[1],156 milligrams per kilogram of bod
same,ratio between effective and lethal doses (in words),"[2]; 2065 versus 2057, ataxia",remains constant
same,increase in effectiveness in producing ataxia,[2]; 2065 versus epimer 2057,ten-fold increase in effectiveness
same,dose required for producing ataxia,[2]; mouse,12 milligrams per kilogram of body weight
same,C - ataxia: dose required to produce ataxia in a mouse,[2]; mouse,12 milligrams per kilogram of bod
same,prolongation of narcosis produced by hexobarbital (in words),[3],prolongation of narcosis produced by hexobarbital
same,E - dose which prolongs narcosis produced by hexobarbital in a mouse by a factor of 4,[3],31.6 milligrams per kilogram of bod
same,ED50,[4]; [10],46.4 mg/kg
same,narcosis (in words),[4]; mouse,produces a very strong narcosis
C=C1C2OC(OC)C3C1CC(OC(=O)NCCC)C3(C)O2 (stereo not drawn) [compound 2388],LD50,[5]; [11],516 mg/kg
same,LD50,[5]; [12],619 mg/kg
same,ED50,[6],33 mg/kg
same,ED50,[7],75 mg/kg
"C=C1C2OC(OC)C3C1CC(OC(=O)CC)C3(C)O2 (stereo not drawn) [Compound No. 2118, 4α-Propionyloxy-8-methoxy-3-methyl-10-methylene-2,9-dioxatricyclo[4.3.1.0^3,7]decane]","dose required to produce a lowering of the rectal temperature, relative to the 4-hydroxy compound (in words)",[8],smaller
same,minimal effective dose,[8],100 mg/kg
same,LD50,[5]; [13],1140 mg/kg
same,F ptosis test,[9],100 milligrams per kilogram of bod
C=C1C2OC(OC)C3C1CC(OC(=O)NC)C3(C)O2 (stereo not drawn) [compound 2504],LD50,[5]; [11],492 mg/kg
same,LD50,[5]; [12],528 mg/kg
same,ED50,[6],200 mg/kg
CCNC(=O)OC1CC2C(C)C3OC(OCC)C2C1(C)O3 (stereo not drawn) [compound 2157],LD50,[5]; [14],527 mg/kg
same,LD50,[5]; [15],1470 mg/kg
same,ED50,[4]; [10],100 mg/kg
"C=C1C2OC(OC)C3C1CC(O)C3(C)O2 (stereo not drawn) [Compound No. 981, 4β-hydroxy-8-methoxy-3-methyl-10-methylene-2,9-dioxatricyclo[4.3.1.0^3,7]decane]",LD50,[5]; [14],600 mg/kg
same,LD50,[5]; [15],610 mg/kg
same,C - ataxia: dose required to produce ataxia in a mouse,[2]; mouse,200 milligrams per kilogram of bod
same,E - dose which prolongs narcosis produced by hexobarbital in a mouse by a factor of 4,[3],100 milligrams per kilogram of bod
C=C1C2OC(OC)C3C1CC(OC(=O)NCC)C3(C)O2 (stereo not drawn) [Compound No. 2067],toxicity of the epimers (in words),[1]; 2067 versus 2076,substantially the same toxicity
same,LD50,[5]; [14],390 mg/kg
same,LD50,[5]; [15],872 mg/kg
same,minimal effective dose,[2],50 mg/kg
same,doses effective in producing ataxia (in words),"[2]; mouse, 2067 versus 2076",identical doses are effective in producing ataxia
same,prolongation of narcosis produced by hexobarbital (in words),[3],prolongs narcosis produced by hexobarbital
same,E - dose which prolongs narcosis produced by hexobarbital in a mouse by a factor of 4,[3],215 milligrams per kilogram of bod
same,narcosis (in words),[4]; mouse,does not produce narcosis
CCCNC(=O)OC1CC2C(C)C3OC(OC)C2C1(C)O3 (stereo not drawn) [compound 2364],LD50,[5]; [11],244 mg/kg
same,LD50,[5]; [12],327 mg/kg
same,ED50,[6],38 mg/kg
same,ED50,[7],44 mg/kg
"C=C1C2OC(OC)C3C1CC(OC(C)=O)C3(C)O2 (stereo not drawn) [Compound No. 2117, 4α-Acetoxy-8-methoxy-3-methyl-10-methylene-2,9-dioxatricyclo [4.3.1.0^3,7] decane]","dose required to produce a lowering of the rectal temperature, relative to the 4-hydroxy compound (in words)",[8],smaller
same,minimal effective dose,[8],50 mg/kg
same,LD50,[5]; [13],774 mg/kg
same,F ptosis test,[9],100 milligrams per kilogram of bod
"C=CCNC(=O)OC1CC2C(=C)C3OC(OC)C2C1(C)O3 (stereo not drawn) [Compound No. 2286, 4α-(N-Allylcarbamyloxy)-8-methoxy-3-methyl-10-methylene-2,9-dioxatricyclo[4.3.1.0^3,7]decane]",LD50,[5]; [11],444 mg/kg
same,LD50,[5]; [12],970 mg/kg
same,ED50,[6],50 mg/kg
same,ED50,[7],112 mg/kg
C=CCNC(=O)OC1CC2C(=C)C3OC(OCC)C2C1(C)O3 (stereo not drawn) [compound 2658],LD50,[5]; [11],331 mg/kg
same,LD50,[5]; [12],470 mg/kg
same,ED50,[6],62 mg/kg
same,ED50,[7],185 mg/kg
C=C1C2OC(OCC)C3C1CC(OC(=O)NCC)C3(C)O2 (stereo not drawn) [compound 2179],LD50,[5]; [14],802 mg/kg
same,LD50,[5]; [15],944 mg/kg
same,minimal effective dose,[2],< 100 mg/kg
same,ED50,[4]; [10],< 100 mg/kg
"C=C1C2OC(OC)C3C1CC(O)C3(C)O2 (stereo not drawn) [Compound No. 2090, 4α-Hydroxy-8-methoxy-3-methyl-10-methylene-2,9-dioxatricyclo[4.3.1.0^3,7] decane]",minimal effective dose,[8],200 mg/kg
same,"B - lethal dose (LD50) to mice, intraperitoneally",[1],300 milligrams per kilogram of bod
same,"A - lethal dose (LD50) to mice, per os",[1],774 milligrams per kilogram of bod
same,C - ataxia: dose required to produce ataxia in a mouse,[2]; mouse,25 milligrams per kilogram of bod
same,F ptosis test,[9],100 milligrams per kilogram of bod
same,ED50,[4]; Mus musculus,< 300 mg/kg
"COC1OC2OC3(C)C(OC(=O)CC(C)C)CC(C2C)C13 (stereo not drawn) [Compound No. 2215, 4α-Isovaleryloxy-8-methoxy-3,10-dimethyl-2,9-dioxatricyclo[4.3.1.0^3,7]decane]",minimal effective dose,[8],200 mg/kg
same,LD50,[5]; [13],> 1470 mg/kg
same,dose producing ptosis relative to the 4-hydroxy compound (in words),[9]; compared with Compound No. 1561,one-fourth or one-half of the dose required of the 4-hydroxy-compound
same,F ptosis test,[9],50 milligrams per kilogram of bod
"COC1OC2OC3(C)C(O)CC(C2C)C13 (stereo not drawn) [Compound No. 1561, 4α-Hydroxy-8-methoxy-3,10-dimethyl-2,9-dioxatricyclo[4.3.1.0^3,7]decane]",minimal effective dose,[8],100 mg/kg
same,"B - lethal dose (LD50) to mice, intraperitoneally",[1],1600 milligrams per kilogram of bod
same,"A - lethal dose (LD50) to mice, per os",[1],> 1500 milligrams per kilogram of bod
same,LD50,[5]; [13],> 1500 mg/kg
same,C - ataxia: dose required to produce ataxia in a mouse,[2]; mouse,200 milligrams per kilogram of bod
same,E - dose which prolongs narcosis produced by hexobarbital in a mouse by a factor of 4,[3],68 milligrams per kilogram of bod
same,F ptosis test,[9],100 milligrams per kilogram of bod
same,ED50,[4]; Mus musculus,800 mg/kg
"COC1OC2OC3(C)C(O)CC(C2C)C13 (stereo not drawn) [Compound No. 1246, 4β-hydroxy-3,10-dimethyl-8-methoxy-2,9-dioxatricyclo[4.3.1.0^3,7]decane]",LD50,[5]; [14],1200 mg/kg
same,LD50,[5]; [15],> 1500 mg/kg
same,C - ataxia: dose required to produce ataxia in a mouse,[2]; mouse,800 milligrams per kilogram of bod
same,E - dose which prolongs narcosis produced by hexobarbital in a mouse by a factor of 4,[3],68 milligrams per kilogram of bod
"C=C1C2OC(OC)C3C1CC(OC(=O)CC(C)C)C3(C)O2 (stereo not drawn) [Compound No. 2295, 4α-Isovaleryloxy-8-methoxy-3-methyl-10-methylene-2,9-dioxatricyclo[4.3.1.0^3,7]decane]","dose required to produce a lowering of the rectal temperature, relative to the 4-hydroxy compound (in words)",[8],smaller
same,minimal effective dose,[8],100 mg/kg
same,LD50,[5]; [13],> 1470 mg/kg
